Results as given in paper PMC12399242 (Acta Pharmaceutica Sinica. B, 2025).
Counter-ions that a name gives are not always drawn. Like-named read-outs stand apart in the source and are kept apart here.

How the values were obtained:
HIV-1 (IIIB) [1] = test: microbe, parasite or virus in culture; assay type: cell-based; settings: for EC50: mean ± SD, n ≥ 3; for SI (IIIB): selectivity index, ratio CC50/EC50
From the text: (§1) Inspired by our previous research on heteroaromatic-biphenyl-DAPYs[15], the 4-cyanophenyl group on the biphenyl moiety was replaced with a privileged 4-pyridyl group for further evaluation.

HIV-1 K103N = test: Antiviral activity against HIV-1 mutant K103N in MT-4 cells; assay type: cell-based
HIV-1 F227L + V106A = test: microbe, parasite or virus in culture; assay type: cell-based
in vitro = settings: human, CC50
From the text: as §1

MT-4 cells [2] = test: in vitro
From the text: as §1

[3] = system: HIV-1 K103N + Y181C (RES056); test: Antiviral activity against HIV-1 double mutant K103N + Y181C (RES056) in MT-4 cells; assay type: cell-based
HIV-1 E138K = test: Antiviral activity against HIV-1 mutant E138K in MT-4 cells; assay type: cell-based
WT HIV-1 RT = WT HIV-1 RT (Human immunodeficiency virus type 1 group M subtype B, UniProt P03366); test: Inhibition of WT HIV-1 RT polymerase activity
Experimental: The anti-HIV-1 activity of A1–A24 and B1–B22 at the cellular or enzyme level were evaluated following our previously reported method[15].

HIV-1 Y181C = test: Antiviral activity against HIV-1 mutant Y181C in MT-4 cells; assay type: cell-based
HIV-1 L100I = test: Antiviral activity against HIV-1 mutant L100I in MT-4 cells; assay type: cell-based
HIV-1 Y188L = test: Antiviral activity against HIV-1 mutant Y188L in MT-4 cells; assay type: cell-based
CYP2D6 = molecular target: T1, CYP2D6 (Homo sapiens, UniProt P10635); test: CYP enzyme inhibition assay, CYP2D6; assay type: in vitro ADME; settings: IC50 CYP2D6, human liver microsomes
T1 construct: An incubation system of human liver microsomes (20 μL, 1.5 mg/mL); from tissue; host or cells: human liver microsomes
T1 sequence (P10635 whole entry): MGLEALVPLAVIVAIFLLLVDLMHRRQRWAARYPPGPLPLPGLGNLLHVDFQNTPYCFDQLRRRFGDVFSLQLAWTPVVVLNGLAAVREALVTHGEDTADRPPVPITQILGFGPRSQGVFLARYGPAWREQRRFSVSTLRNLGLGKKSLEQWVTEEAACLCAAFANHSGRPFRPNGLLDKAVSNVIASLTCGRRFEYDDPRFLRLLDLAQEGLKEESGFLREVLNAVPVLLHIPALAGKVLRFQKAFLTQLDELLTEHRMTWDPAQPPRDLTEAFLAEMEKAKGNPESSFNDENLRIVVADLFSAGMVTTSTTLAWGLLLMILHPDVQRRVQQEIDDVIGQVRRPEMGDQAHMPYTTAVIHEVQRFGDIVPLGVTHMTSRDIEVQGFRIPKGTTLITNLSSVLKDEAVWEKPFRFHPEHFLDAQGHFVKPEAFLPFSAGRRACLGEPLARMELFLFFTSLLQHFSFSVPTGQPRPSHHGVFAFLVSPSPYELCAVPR
Experimental: An incubation system of human liver microsomes (20 μL, 1.5 mg/mL), 20 μL probe substrates, and 50 μL test compound in Tris (0.1 mol/L) was pre-incubated at 37 °C for 10 min, and then initiated by adding NADPH (10 μL, 10 mmol/L). The system was incubated for another 15 min and subsequently terminated by 100 μL MeCN containing internal standard (propranolol, nadolol). Finally, the sample was centrifugated to obtain the supernatant for LC‒MS/MS analysis.

[4] = comparison values; cited from earlier work
HIV-1 (IIIB) [5] = settings: earlier compounds of Fig. 1 / introduction, cited from earlier work; for EC50: WT HIV-1
MT-4 cells [6] = settings: cited from earlier work
[7] = human liver microsomes; cited from earlier work
[8] = Human immunodeficiency virus 1, IIIB, MT4, WT HIV-1, protection of MT-4 cells against HIV-induced cytopathogenicity
[9] = WT HIV-1, protection of MT-4 cells against HIV-induced cytopathogenicity
[10] = Human immunodeficiency virus 1, MT4, read-out: EC50 K103N
[11] = Human immunodeficiency virus 1, MT4, read-out: EC50 F227L + V106A
[12] = Human immunodeficiency virus 1, MT4, read-out: EC50 K103N + Y181C
[13] = Human immunodeficiency virus 1, MT4, read-out: EC50 E138K
[14] = Human immunodeficiency virus 1, MT4, read-out: EC50 Y181C
[15] = Human immunodeficiency virus 1, MT4, read-out: EC50 L100I
[16] = Human immunodeficiency virus 1, MT4, read-out: EC50 Y188L

Row | SMILES | EC50 (HIV-1 (IIIB) [1]; [9]) | SI (IIIB) (HIV-1 (IIIB) [1]) | EC50 (HIV-1 K103N; [10]) | EC50 (HIV-1 F227L + V106A; [11]) | CC50 (in vitro) | CC50 (MT-4 cells [2]; human) | EC50 [3, 12] | EC50 (HIV-1 E138K; [13]) | IC50 (WT HIV-1 RT) | EC50 (HIV-1 Y181C; [14]) | EC50 (HIV-1 L100I; [15]) | EC50 (HIV-1 Y188L; [16]) | other results
1 | COc1cc(-c2ccncc2)ccc1Oc1nc(Nc2ccc(C#N)cc2)ncc1F [A16, 4-((5-Fluoro-4-(2-methoxy-4-(pyridin-4-yl)phenoxy)pyrimidin-2-yl)amino)benzonitrile] | 3.1 ± 2.2 nM | >15,094 | 12 ± 3.9 nM | 1230 ± 556 nM | > 45000 nM | > 48000 nM | > 48400 nM | 13 ± 3.4 nM | 34 ± 2.4 nM | 104 ± 17 nM | 39 ± 9.7 nM | 1520 ± 556 nM | EC50 (HIV-1 (IIIB) [1]; [8]): ≤ 5.3 nM
2 | COc1ccc2c(c1)[C@]13CCCC[C@@H]1[C@H](C2)N(C)CC3 [Dextromethorphan, reference compound] | – | – | – | – | – | – | – | – | – | – | – | – | IC50 (CYP2D6): 224 nM
3 | Cc1cc(-c2ccc(C#N)cc2)ccc1Nc1nc(Nc2ccc(C#N)cc2)ncc1F [A9, 4′-((2-((4-Cyanophenyl)amino)-5-fluoropyrimidin-4-yl)amino)-3′-methyl-[1,1′-biphenyl]-4-carbonitrile] | – | – | 7.1 ± 1.9 nM | 37700 nM | – | – | 24900 nM | 10 ± 1.9 nM | 36 ± 4.8 nM | 9.3 ± 0.7 nM | 17 ± 6.7 nM | 1620 ± 382 nM | –
4 | Cc1cc(/C=C/C#N)cc(C)c1Nc1ccnc(Nc2ccc(C#N)cc2)n1 [RPV · HCl, rilpivirine HCl] | – | – | – | – | – | – | – | – | – | – | – | – | F (oral bioavailability) [4]: 32%
5 | CN(c1ccnc(Nc2ccc(C#N)cc2)n1)c1c(F)cc(-c2ccc(C#N)cc2)cc1F [compound 5] | – | – | – | – | – | – | – | – | – | – | – | – | EC50 (HIV-1 (IIIB) [5]): 6.2 nM; SI (HIV-1 (IIIB) [5]): 24,067; CC50 (MT-4 cells [6]; earlier compounds of Fig. 1 / introduction): 148000 nM
6 | Cc1cc(-c2ccncc2)cc(C)c1Nc1nc(Nc2ccc(C#N)cc2)ncc1F [A24, 4-((4-((2,6-Dimethyl-4-(pyridin-4-yl)phenyl)amino)-5-fluoropyrimidin-2-yl)amino)benzonitrile] | – | – | 1.9 ± 0.5 nM | 244 ± 146 nM | – | – | 63 ± 12 nM | 8.3 ± 5.4 nM | 39 ± 2.4 nM | 9.3 ± 5.6 nM | 4.1 ± 3.7 nM | 90 ± 27 nM | –
7 | Cc1ccnc2c1NC(=O)c1cccnc1N2C1CC1 [NVP, reference compound] | 188 ± 68 nM | – | – | – | – | – | – | – | – | – | – | – | EC50 (HIV-1 K103N; MT-4 cells, mean ± SD, n ≥ 3, read-out: EC50 K103N): 5860 ± 2780 nM; EC50 (HIV-1 F227L + V106A; MT-4 cells, mean ± SD, n ≥ 3, read-out: EC50 F227L + V106A): > 15000 nM; CC50 (MT-4 cells [2]; uninfected MT-4 cells, mean ± SD, n ≥ 3): > 15000 nM; EC50 ([3]; RES056, MT-4 cells, mean ± SD, n ≥ 3, read-out: EC50 K103N + Y181C): > 15000 nM; EC50 (HIV-1 E138K; MT-4 cells, mean ± SD, n ≥ 3, read-out: EC50 E138K): 143 ± 38 nM; EC50 (HIV-1 Y181C; MT-4 cells, mean ± SD, n ≥ 3, read-out: EC50 Y181C): 9010 ± 2630 nM; EC50 (HIV-1 L100I; MT-4 cells, mean ± SD, n ≥ 3, read-out: EC50 L100I): 1800 ± 1430 nM; EC50 (HIV-1 Y188L; MT-4 cells, mean ± SD, n ≥ 3, read-out: EC50 Y188L): > 15000 nM
8 | COc1cc(-c2ccc(C#N)cc2)ccc1Oc1nc(Nc2ccc(C#N)cc2)ncc1F [A4, 4′-((2-((4-Cyanophenyl)amino)-5-fluoropyrimidin-4-yl)oxy)-3′-methoxy-[1,1′-biphenyl]-4-carbonitrile] | 3 ± 1.1 nM | >16,000 | 9.4 ± 2.7 nM | ≥ 1600 nM | > 45000 nM | > 46000 nM | > 45700 nM | 7.8 ± 2.3 nM | 46 ± 4.6 nM | 48 ± 14 nM | 41 ± 25 nM | 1370 ± 206 nM | EC50 (HIV-1 (IIIB) [1]; [8]): ≤ 5.3 nM
9 | Cc1cc(/C=C/C#N)cc(C)c1Nc1ccnc(Nc2ccc(C#N)cc2)n1 [RPV, rilpivirine] | – | – | – | – | – | – | – | – | – | – | – | – | EC50 (HIV-1 (IIIB) [5]): 1 nM; CC50 (MT-4 cells [6]; introduction): ~5000 nM; CLint(liver) [7]: 97.6 mL/min/kg; CLint(mic) [7]: 108.4 µL/min/mg; t1/2 [7]: 12.8 min
10 | N#Cc1ccc(Nc2ncc(F)c(Nc3ccc(-c4ccc(C#N)cc4)cc3F)n2)cc1 [A7, 4′-((2-((4-Cyanophenyl)amino)-5-fluoropyrimidin-4-yl)amino)-3′-fluoro-[1,1′-biphenyl]-4-carbonitrile] | – | >25,806 | 68 ± 38 nM | > 47100 nM | > 45000 nM | > 47000 nM | > 47100 nM | 35 ± 17 nM | 28 ± 4.7 nM | 259 ± 165 nM | 5440 ± 2400 nM | > 47100 nM | –
